Experiment: refractive index (Na D-line) (dimensionless); xn = mol fraction of the nth substance listed
Conditions: 101 kPa, Liquid, Standard Abbe refractometry

C[C@H](O)C(=O)[O-].C[N+](C)(C)CCO + O
refractive index
Conditions | 293.15 K | 298.15 K | 303.15 K | 308.15 K | 313.15 K | 318.15 K | 323.15 K
x1 = 0.0258 | 1.36903 | 1.36828 | 1.36748 | 1.36732 | 1.36664 | 1.36649 | 1.36665
x1 = 0.0511 | 1.39091 | 1.38998 | 1.38899 | 1.38799 | 1.38719 | 1.38658 | 1.38756
x1 = 0.074 | 1.41121 | 1.4101 | 1.40897 | 1.4078 | 1.40673 | 1.40601 | 1.40547
x1 = 0.1027 | 1.41982 | 1.41868 | 1.41749 | 1.4163 | 1.4151 | 1.41389 | 1.41332
x1 = 0.1965 | 1.43901 | 1.43773 | 1.43645 | 1.43516 | 1.43386 | 1.43253 | 1.43117
x1 = 0.2957 | 1.45194 | 1.45066 | 1.44934 | 1.448 | 1.44669 | 1.44535 | 1.44401
x1 = 0.416 | 1.46075 | 1.4594 | 1.45817 | 1.45679 | 1.45543 | 1.45415 | 1.45266
x1 = 0.5184 | 1.46916 | 1.46786 | 1.46656 | 1.46532 | 1.46399 | 1.46255 | 1.46151
x1 = 0.5347 | 1.46974 | 1.46843 | 1.46709 | 1.46577 | 1.46444 | 1.46311 | 1.4618
x1 = 0.6044 | 1.47013 | 1.46887 | 1.46754 | 1.4662 | 1.46489 | 1.46346 | 1.46206
x1 = 0.6931 | 1.47355 | 1.4723 | 1.47098 | 1.46966 | 1.46835 | 1.46704 | 1.46574
x1 = 0.7801 | 1.47251 | 1.47121 | 1.47001 | 1.46842 | 1.46703 | 1.46554 | 1.46388
x1 = 0.8279 | 1.47481 | 1.47368 | 1.47226 | 1.47073 | 1.46931 | 1.46789 | 1.46631
x1 = 0.8996 | 1.48014 | 1.47898 | 1.47758 | 1.47607 | 1.47467 | 1.47331 | 1.47199

From the NIST ThermoML archive (doi:10.1016/j.jct.2014.03.021)
